{"source": "paper PMC9599717", "about": "“The Multicellular Effects of VDAC1 N-Terminal-Derived Peptide” (Biomolecules, 2022)", "key": {"U-87MG cells": {"tested_on": "U-87MG cells", "assay": "Live-cell imaging (HoloMonitor) of cell division and re-fusion of daughter cells", "format": "cell-based, human", "parameters": "dose or concentration left out as unconfirmed", "details": "24 h incubation", "experimental": "Cells were seeded in a 6-well plates, treated with D-Δ(1-18)N-Ter-Antp peptide for 24 h, and monitored with the Holomonitor live cell imaging system (Holographic Imaging, Lund, Sweden) for 24 h at 37 °C and 5% CO2 or with a microscope (LX2-KSP; Olympus, Shinjuku, Tokyo, Japan), with images captured by a CCD camera.\nFigure 8 D-Δ(1-18)N-Ter-Antp peptide induced apoptosis and altered cell division. (A) HeLa cells were treated with D-Δ1-18N-Ter-Antp (5 μM, 24 h) and monitored using a live-imaging microscope (HoloMonitor). The time course of cell division is presented. Division–fusion phase times are represented in relation to D-Δ(1-18)N-Ter-Antp administration time (T = 0). i. The cells are in a pre-division stage. ii. The cell divides into two cells. iii. The cell becomes partially fused. iv. The cells become fully fused into one large cell. v. Finally, they become an apoptotic cell. (B,C) HeLa cells incubated with the peptide (10 μM, 24 h) and then stained with anti-tubulin antibodies, followed by secondary anti-mouse-cy3 antibodies (red) followed by actin staining with Phalloidin-488 (green), nuclei stained with DAPI (blue) and visualized by confocal microscopy. Cells with divided nuclei that were connected or in a re-fused state are circled (C). (D) Schematic illustration of cell division phases of control and D-Δ(1-18)N-Ter-Antp peptide-treated cells.\nFigure A1 Vedio S1. […]"}, "G-actin": {"target": "T1, G-actin (Oryctolagus cuniculus, UniProt P68135)", "T1 construct": "Actin was purified from rabbit muscle as CaATP–G-actin complex; from tissue; host or cells: rabbit muscle", "assay": "Pyrenyl-actin G-actin polymerization assay", "format": "biochemical, rabbit", "details": "16.7 µM peptide, 2 μM MgATP–G-actin with 10% pyrenyl-labeled actin, 22 °C", "experimental": "Actin was purified from rabbit muscle as CaATP–G-actin complex according to the published method using Supredex S200 (Cytiva Lifesciences) size exclusion chromatography in a buffer G composed of 5 mM Tris/HCl, pH 7.8, 0.2 mM CaCl2, 0.2 mM ATP, 0.5 mM dithiothreitol, and 0.01% NaN3. The purified G-actin was fluorescently labeled on Cys-374 with N-(1-pyrene) iodoacetamide (Invitrogene) to a molar ratio of 0.8 to 1.0 pyrene/G-actin, as described previously. CaATP–G-actin was converted into MgATP–G-actin by incubation on ice for 20 min with 20 μM MgCl2 and 0.2 mM EGTA to 10 μM and was used within 1 h.\nG-actin polymerization was monitored by following the increase in the fluorescence of 10% pyrenyl-labeled actin. […] Fluorescence measurements were carried out at 22 °C in a Horiba/Jobin Yvon FluoroLog Spectrofluorometer using excitation and emission wavelengths of 365 and 407 nm, respectively. Data were analyzed using GraphPad Prism4.1.681 for Windows software (San Diego, CA, USA).\nFigure 5 D-Δ(1-18)N-Ter-Antp altered actin filament organization (A,B) U-87MG cells were cultured and incubated for 24 h with D-Δ(1-18)N-Ter-Antp (10 µM). Cells were stained for actin using Phalloidin-488 and visualized by confocal microscopy (A) and quantified for Phalloidin-488 staining intensity (B). […] (D) Actin interaction with VDAC1 analyzed using the MST method. […]"}}, "data": [{"substance": "19-FTKGYGFGL-26- RQIKIWFQNRRMKWKK [D-Δ(1-18)N-Ter-Antp]", "values": [{"measurement": "Percentage of cells with re-fusion of daughter cells", "setting": "U-87MG cells", "result": "60–80%"}, {"measurement": "Effect on G-actin polymerization", "setting": "G-actin", "result": "inhibition of the actin filament assembly"}]}]}
